# Patent publication US10294202B2, “Pyrrolidinones as herbicides” (FMC Corporation, priority 2013, dated 2019)
# Legend:
# ryegrass, Italian = experiment: Test E preemergence herbicide test; assay type: in vivo, Lolium multiflorum; parameters: key: 0 = no effect, 100 = complete control
# Description: (§1) Seeds of plant species selected from corn (Zea mays), soybean (Glycine max), velvetleaf (Abutilon theophrasti), lambsquarters (Chenopodium album), wild poinsettia (Euphorbia heterophylla), pigweed, palmer (palmer pigweed, Amaranthus palmeri), waterhemp (common waterhemp, Amaranthus rudis), surinam grass (Brachiaria decumbens), crabgrass, large (large crabgrass, Digitaria sanguinalis), crabgrass, Brazil (Brazilian crabgrass, Digitaria horizontalis), panicum, fall (fall panicum, Panicum dichotomiflorum), foxtail, giant (giant foxtail, Setaria faberii), foxtail, green (green foxtail, Setaria viridis), goosegrass (Eleusine indica), johnsongrass (Sorghum halepense), ragweed (common ragweed, Ambrosia elatior), barnyardgrass (Echinochloa crus-galli), sandbur (southern sandbur, Cenchrus echinatus), arrowleaf […] rhombifolia), ryegrass, Italian (Italian ryegrass, Lolium multiflorum), dayflower, VA (Virginia dayflower, Commelina virginica), field bindweed (Convolvulus arvensis), morningglory (Ipomoea coccinea), nightshade (eastern black nightshade, Solanum ptycanthum), kochia (Kochia scoparia), nutsedge, yellow (yellow nutsedge, Cyperus esculentus), cocklebur (common cocklebur, Xanthium strumarium), smartweed (ladysthumb smartweed, Polygonum Persicaria) and beggarticks (hairy beggarticks, Bidens pilosa), were planted into a silt loam soil and treated preemergence with test chemicals formulated in a non-phytotoxic solvent mixture which included a surfactant. Treated plants and controls were maintained in a greenhouse for 21 days, after which time all species were compared to controls and visually evaluated. Plant response ratings, summarized in Table E, are based on a scale of 0 to 100 where 0 is no effect and 100 is complete control. A dash (-) response means no test result.
# foxtail, green = experiment: Test E preemergence herbicide test; assay type: in vivo, Setaria viridis; parameters: key: 0 = no effect, 100 = complete control
# Description: as §1
# field bindweed = experiment: Test E preemergence herbicide test; assay type: in vivo, Convolvulus arvensis; parameters: key: 0 = no effect, 100 = complete control
# Description: as §1
# Russian thistle = experiment: Test D pre-/postemergence herbicide test; assay type: in vivo, Salsola kali; details: Postemergence, Russian Thistle, scale 0 to 100
# Procedure, shortened: (§2)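 Plants were sown in silt loam for preemergence spraying or in a peat moss/vermiculite mix for postemergence spraying at 2 to 18 cm height. Formulations used a non-phytotoxic solvent mixture with a surfactant. After 7 to 21 days, responses were scored visually from 0 (no effect) to 100 (complete control).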
# bromegrass, downy = experiment: Test D pre-/postemergence herbicide test; assay type: in vivo, Bromus tectorum; details: Postemergence, Bromegrass, Downy, scale 0 to 100
# Procedure, shortened: as §2
# speedwell = experiment: Test D pre-/postemergence herbicide test; assay type: in vivo, Veronica persica; details: Postemergence, Speedwell, scale 0 to 100
# Procedure, shortened: as §2
# mustard, wild = experiment: Test D pre-/postemergence herbicide test; assay type: in vivo, Sinapis arvensis; details: Postemergence, Mustard, Wild, scale 0 to 100
# Procedure, shortened: as §2
# pigweed = experiment: Test D pre-/postemergence herbicide test; assay type: in vivo, Amaranthus retroflexus; details: Postemergence, Pigweed, scale 0 to 100
# Procedure, shortened: as §2
# blackgrass = experiment: Test D pre-/postemergence herbicide test; assay type: in vivo, Alopecurus myosuroides; details: Postemergence, Blackgrass, scale 0 to 100
# Procedure, shortened: as §2
# galium = experiment: Test D pre-/postemergence herbicide test; assay type: in vivo, Galium aparine; details: Postemergence, Galium, scale 0 to 100
# Procedure, shortened: as §2
# oat, wild = experiment: Test D pre-/postemergence herbicide test; assay type: in vivo, Avena fatua; details: Postemergence, Oat, Wild, scale 0 to 100
# Procedure, shortened: as §2
# bluegrass = experiment: Test D pre-/postemergence herbicide test; assay type: in vivo, Poa annua; details: Postemergence, Bluegrass, scale 0 to 100
# Procedure, shortened: as §2
compound,measurement,setting,value
O=C1NCC(c2ccc(F)cc2)C1C(=O)Nc1ccccc1F (racemic) [Compound 16],"Plant response rating, Ryegrass, Italian","ryegrass, Italian; 16 g ai/ha",0
same,"Plant response rating, Ryegrass, Italian","ryegrass, Italian; 31 g ai/ha",0
same,"Plant response rating, Ryegrass, Italian","ryegrass, Italian; 62 g ai/ha",0
same,"Plant response rating, Ryegrass, Italian","ryegrass, Italian; 125 g ai/ha",0
same,"Plant response rating, Ryegrass, Italian","ryegrass, Italian; 250 g ai/ha",30
same,"Plant response rating, Foxtail, Green","foxtail, green; 16 g ai/ha",0
same,"Plant response rating, Foxtail, Green","foxtail, green; 31 g ai/ha",0
same,"Plant response rating, Foxtail, Green","foxtail, green; 62 g ai/ha",10
same,"Plant response rating, Foxtail, Green","foxtail, green; 125 g ai/ha",25
same,"Plant response rating, Foxtail, Green","foxtail, green; 250 g ai/ha",95
same,"Plant response rating, Field Bindweed",field bindweed; 16 g ai/ha,0
same,"Plant response rating, Field Bindweed",field bindweed; 31 g ai/ha,0
same,"Plant response rating, Field Bindweed",field bindweed; 62 g ai/ha,0
same,"Plant response rating, Field Bindweed",field bindweed; 125 g ai/ha,0
same,"Plant response rating, Field Bindweed",field bindweed; 250 g ai/ha,0
O=C1NCC(c2cc(F)c(F)c(F)c2)C1C(=O)Nc1ccccc1F (racemic) [Compound 34],Plant response rating,Russian thistle; 16 g ai/ha,0
same,Plant response rating,Russian thistle; 31 g ai/ha,0
same,Plant response rating,Russian thistle; 62 g ai/ha,0
same,Plant response rating,Russian thistle; 125 g ai/ha,0
same,Plant response rating,Russian thistle; 250 g ai/ha,0
same,Plant response rating,"bromegrass, downy; 16 g ai/ha",0
same,Plant response rating,"bromegrass, downy; 31 g ai/ha",0
same,Plant response rating,"bromegrass, downy; 62 g ai/ha",0
same,Plant response rating,"bromegrass, downy; 125 g ai/ha",0
same,Plant response rating,"bromegrass, downy; 250 g ai/ha",0
same,Plant response rating,speedwell; 16 g ai/ha,0
same,Plant response rating,speedwell; 31 g ai/ha,0
same,Plant response rating,speedwell; 62 g ai/ha,0
same,Plant response rating,speedwell; 125 g ai/ha,0
same,Plant response rating,speedwell; 250 g ai/ha,30
same,Plant response rating,"mustard, wild; 16 g ai/ha",0
same,Plant response rating,"mustard, wild; 31 g ai/ha",0
same,Plant response rating,"mustard, wild; 62 g ai/ha",0
same,Plant response rating,"mustard, wild; 125 g ai/ha",10
same,Plant response rating,"mustard, wild; 250 g ai/ha",20
same,Plant response rating,pigweed; 16 g ai/ha,0
same,Plant response rating,pigweed; 31 g ai/ha,0
same,Plant response rating,pigweed; 62 g ai/ha,0
same,Plant response rating,pigweed; 125 g ai/ha,0
same,Plant response rating,pigweed; 250 g ai/ha,10
same,Plant response rating,blackgrass; 16 g ai/ha,0
same,Plant response rating,blackgrass; 31 g ai/ha,0
same,Plant response rating,blackgrass; 62 g ai/ha,0
same,Plant response rating,blackgrass; 125 g ai/ha,0
same,Plant response rating,blackgrass; 250 g ai/ha,0
same,Plant response rating,galium; 16 g ai/ha,0
same,Plant response rating,galium; 31 g ai/ha,0
same,Plant response rating,galium; 62 g ai/ha,0
same,Plant response rating,galium; 125 g ai/ha,0
same,Plant response rating,galium; 250 g ai/ha,0
same,Plant response rating,"oat, wild; 16 g ai/ha",0
same,Plant response rating,"oat, wild; 31 g ai/ha",0
same,Plant response rating,"oat, wild; 62 g ai/ha",0
same,Plant response rating,"oat, wild; 125 g ai/ha",0
same,Plant response rating,"oat, wild; 250 g ai/ha",0
same,Plant response rating,bluegrass; 16 g ai/ha,0
same,Plant response rating,bluegrass; 31 g ai/ha,0
same,Plant response rating,bluegrass; 62 g ai/ha,0
same,Plant response rating,bluegrass; 125 g ai/ha,0
same,Plant response rating,bluegrass; 250 g ai/ha,0
O=C1NCC(c2cccc(Br)c2)C1C(=O)Nc1ccccc1F (stereo not drawn) [Compound 66],"Plant response rating, Ryegrass, Italian","ryegrass, Italian; 16 g ai/ha",0
same,"Plant response rating, Ryegrass, Italian","ryegrass, Italian; 31 g ai/ha",0
same,"Plant response rating, Ryegrass, Italian","ryegrass, Italian; 62 g ai/ha",0
same,"Plant response rating, Ryegrass, Italian","ryegrass, Italian; 125 g ai/ha",0
same,"Plant response rating, Ryegrass, Italian","ryegrass, Italian; 250 g ai/ha",0
same,"Plant response rating, Foxtail, Green","foxtail, green; 16 g ai/ha",0
same,"Plant response rating, Foxtail, Green","foxtail, green; 31 g ai/ha",0
same,"Plant response rating, Foxtail, Green","foxtail, green; 62 g ai/ha",0
same,"Plant response rating, Foxtail, Green","foxtail, green; 125 g ai/ha",35
same,"Plant response rating, Foxtail, Green","foxtail, green; 250 g ai/ha",60
same,"Plant response rating, Field Bindweed",field bindweed; 16 g ai/ha,0
same,"Plant response rating, Field Bindweed",field bindweed; 31 g ai/ha,0
same,"Plant response rating, Field Bindweed",field bindweed; 62 g ai/ha,0
same,"Plant response rating, Field Bindweed",field bindweed; 125 g ai/ha,0
same,"Plant response rating, Field Bindweed",field bindweed; 250 g ai/ha,0
O=C1NCC(c2ccc(C(F)(F)F)cc2)C1C(=O)Nc1ccc(F)c(F)c1F (stereo not drawn) [Compound 232],"Plant response rating, Ryegrass, Italian","ryegrass, Italian; 31 g ai/ha",0
same,"Plant response rating, Ryegrass, Italian","ryegrass, Italian; 62 g ai/ha",10
same,"Plant response rating, Ryegrass, Italian","ryegrass, Italian; 125 g ai/ha",20
same,"Plant response rating, Ryegrass, Italian","ryegrass, Italian; 250 g ai/ha",40
same,"Plant response rating, Foxtail, Green","foxtail, green; 31 g ai/ha",80
same,"Plant response rating, Foxtail, Green","foxtail, green; 62 g ai/ha",95
same,"Plant response rating, Foxtail, Green","foxtail, green; 125 g ai/ha",98
same,"Plant response rating, Foxtail, Green","foxtail, green; 250 g ai/ha",98
same,"Plant response rating, Field Bindweed",field bindweed; 31 g ai/ha,0
same,"Plant response rating, Field Bindweed",field bindweed; 62 g ai/ha,0
same,"Plant response rating, Field Bindweed",field bindweed; 125 g ai/ha,40
same,"Plant response rating, Field Bindweed",field bindweed; 250 g ai/ha,40
